Laboratory results as given in patent US8927297B2, “Methods to measure dissociation rates for ligands that form reversible covalent bonds” (Janssen Pharmaceutica N.V., priority 2009, dated 2015).

Target: T1, ERR-α (Homo sapiens, UniProt P11474)
T1 construct: made in house; host or cells: Spodoptera frugiperda (Sf9) insect cells, baculovirus
T1 sequence (P11474 with tags, fused parts or gaps): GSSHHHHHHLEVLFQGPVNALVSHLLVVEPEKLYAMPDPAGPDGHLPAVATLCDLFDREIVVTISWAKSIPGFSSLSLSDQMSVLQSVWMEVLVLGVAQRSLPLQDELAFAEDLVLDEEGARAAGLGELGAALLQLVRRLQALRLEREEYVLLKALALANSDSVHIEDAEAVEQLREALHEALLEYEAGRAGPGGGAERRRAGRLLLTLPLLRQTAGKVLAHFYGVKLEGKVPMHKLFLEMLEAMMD
Assay: LC/MS kinetics of association and dissociation for ligands forming a covalent bond to Cys325 of ERR-α
Assay type: binding
Conditions: dissociation rate by LC/MS with 20-fold excess Compound 2 as competing ligand; 37° C.
Excerpt: The progress of the reaction was also expressed as a fraction of the area observed for the complex of ERR-α and the competing ligand over the sum of total area for the complex of ERR-α with the ligand and the complex of ERR-α with the competing ligand.
where k is the apparent rate constant.

Row | kd | Structure (SMILES)
1 | 1.53e-05 s⁻¹ | COc1cc(/C=C2\SC(N3CCN(C)CC3)=NC2=O)ccc1Oc1ccc(C#N)cc1C(F)(F)F [Compound 3]
2 | 2.19e-05 s⁻¹ | CN1CCN(C2=NC(=O)/C(=C/c3ccc(Oc4ccc(C#N)cc4C(F)(F)F)c(F)c3)S2)CC1 [Compound 4]
3 | 2.05e-05 s⁻¹ | COc1cc(/C=C2\SC(N)=NC2=O)ccc1Oc1ccc(C#N)cc1C(F)(F)F [Compound 5]

Row | Structure (SMILES) | kd
4 | COc1cc(/C=C2\SC(=O)NC2=O)ccc1Oc1ccc(C#N)cc1C(F)(F)F [Compound 1] | 1.1e-05 s⁻¹
